Test system: human citrated plasma
Assay: aPTT time prolongation in human citrated plasma (Biomatic B10 coagulometer)
Format: biochemical
Details: effective concentration at which the aPTT time is double compared with the control, 37° C.
Description: were investigated for their effect on prolonging the aPTT time as follows:
Materials: plasma, from human citrated blood;
PTT reagent, Boehringer Mannheim (524298);
Calcium solution (0.025 mol/L), Behring Werke, Marburg (ORH 056/57),
Diethylbarbiturate acetate buffer, Behring Werke, Marburg (ORWH 60/61); and
Biomatic B10 coagulometer, Desaga, Wiesloch.
The aPTT time was determined using a Biomatic B10 coagulometer made by Messrs. Desaga.
The test substance was placed in the test tubes prescribed by the manufacturer with 0.1 mL of human citrated plasma and 0.1 mL of PTT reagent. The mixture was incubated for three minutes at 37° C. The clotting reaction was started by the addition of 0.1 mL of calcium solution. The time is measured using the apparatus from the addition of the calcium solution up to the clotting of the mixture. Mixtures to which 0.1 mL of DBA buffer had been added were used as the controls.
According to the definition, a dosage-activity curve was used to determine the effective concentration of the substance at which the aPTT time is double compared with the control.

## Cc1cc(C(=O)N2CCCC2C)c(C)cc1NC(=O)CNc1ccc(C(=N)N)cc1 (centres unmarked) [A, 4-{N-[2,5-dimethyl-4-(2-methylpyrrolidinocarbonyl)phenylaminocarbonylmethyl]-amino}benzamidine]
  aPTT time (ED200 in μM): 0.65 µM

## Cc1cc(C(=O)C(C)C)c(C)cc1NC(=O)CNc1ccc(C(=N)N)cc1 [B, 4-[N-(2,5-dimethyl-4-isopropylcarbonylphenylaminocarbonylmethyl)amino]benzamidine]
  aPTT time (ED200 in μM): 0.67 µM

From US20040248897A1, “Substituted N-acylaniline derivatives, the preparation thereof, and their use as pharmaceutical compositions” (Boehringer Ingelheim Pharma GmbH & Co. KG, priority 2001, published 2004)
